Source: US20240294543A1, “CYCLOHEPTA-THIENO-DIAZEPINE DERIVATIVES AS GABA A GAMMA1 PAM” (Hoffmann-La Roche Inc., priority 2021, published 2024)
Like-named read-outs stand apart in the source and are kept apart here.

Experiments:
[1] = biological target: human GABAA α1β3γ2 receptor (Homo sapiens (Human), UniProt P14867+P18507); experiment: Radioligand binding assay, competition for [3H]Flumazenil, γ2-containing GABAA subtypes; settings: for γ2/γ1 Selectivity Ratio: Ki α1β3γ2 (nM)/Ki α2β2γ1 (nM); for LogSel: Log[Ki α1β3γ2 (nM)/Ki α2β2γ1 (nM)]
Protocol: The affinity of compounds at GABAA γ2 subunit-containing receptors was measured by competition for [^3H]Flumazenil (81.1 Ci/mmol; Roche) binding to HEK293F cells expressing human (transiently transfected) receptors of composition α1β3γ2.
Harvested pellets from HEK293F cells expressing the different GABAA γ2 receptor subtypes were resuspended in Mannitol Buffer pH 7,2-7,4 and processed as described above for the cells expressing the GABAA γ1 subunit-containing receptors.
Assays were incubated to equilibrium for 1 hour at 4° C. and harvested onto GF/C uni-filters (Packard) by filtration using a Packard harvester and washing with ice-cold wash buffer (50 mM Tris; pH 7.5). After anhydrousing, filter-retained radioactivity was detected by liquid scintillation counting. Ki values were calculated using Excel-Fit (Microsoft) and are the means of two determinations.

[2] = biological target: human GABAA α1β2γ1 receptor (Homo sapiens (Human), UniProt P14867+Q8N1C3); experiment: Radioligand binding assay, competition for [3H]RO7239181, γ1-containing GABAA subtypes; settings: [3H]RO7239181 20-30 nM, Table 1
Protocol: (§1) The affinity of compounds at GABAA γ1 subunit-containing receptors was measured by competition for [^3H]RO7239181 (67.3 Ci/mmol; Roche) binding to membranes from HEK293F cells (ThermoFisher R79007) expressing human (transiently transfected) receptors of composition α5β2γ1, α2β2γ1, α1β2γ1.
(§2) Harvested pellets from HEK293F cells expressing the different GABAA receptor subtypes were resuspended in Mannitol Buffer pH 7.2-7.4 (Mannitol 0.29 M, Triethylamine 10 mM, Acetic acid 10 mM, EDTA 1 mM plus protease inhibitors (20 tablets Complete, Roche Diagnostics Cat. No. 05 056 489 001 per liter)), washed two times and then resuspended at 1:10 to 1:15 dilution in the same buffer. Cell disruption was performed by stirring the suspension in a Parr vessel #4637 at 435 psi for 15 minutes, and then the suspensions were centrifuged at 1000×g for 15 minutes at 4° C. (Beckman Avanti J-HC; rotor JS-4.2). The supernatant (S1) was transferred in a 21 Schott flask and the pellet (P1) was resuspended with Mannitol Buffer up to 175 ml. The resuspended pellet was transferred into a 250 ml Corning centrifugal beaker and centrifuged at 1500×g for 10 minutes at 4° C. (Beckman Avanti J-HC; rotor JS-4.2). The supernatant (S1) was then transferred in the 21 Schott flask and the pellet was discarded. The supernatants (S1) were centrifuged in 500 ml Beckman polypropylene centrifugal beaker at 15'000×g for 30 minutes at 4° C. (Beckman Avanti J-20 XP; rotor JLA-10.500). The pellet (P2) was resuspended with Mannitol Buffer 1:1 and frozen at −80° C. The supernatant (S2) was centrifuged in 100 ml Beckman polypropylene centrifugal tubes at 48000×g for 50 minutes at 4° C. (Beckman Avanti J-20 XP; rotor JA-18). The supernatant (S3) was discarded and the pellet (P3) was resuspended with 1:1 Mannitol Buffer. The P2 and P3 protein concentration was determined with the BIORAD Standard assay method with bovine serum albumin as standard and measured on the NANO-Drop 1000. The membrane suspension was aliquots (500 μl per tube) and stored at −80° C. until required.
(§3) Membrane homogenates were resuspended and polytronised (Polytron PT1200E Kinematica AG) in Potassium Phosphate 10 mM, KCl 100 mM binding buffer at pH 7.4 to a final assay concentration determined with a previous experiment.
(§4) Assays were incubated to equilibrium for 1 hour at 4° C. and then, membranes were filtered onto unifilter (96-well white microplate with bonded GF/C filters preincubated 20-50 minutes in 0.3% Polyethylenimine) with a Filtermate 196 harvester (Packard BioScience) and washed 4 times with cold Potassium Phosphate 10 mM pH 7.4, KCl 100 mM binding buffer. After anhydrousing, filter-retained radioactivity was detected by liquid scintillation counting. Ki values were calculated using Excel-Fit (Microsoft) and are the means of two determinations.

[3] = biological target: human GABAA α2β2γ1 receptor (Homo sapiens (Human), UniProt P47869+Q8N1C3); experiment: as above; settings: Ki h-GABAA α2β2γ1, membranes of HEK293F cells, [3H]RO7239181 20-30 nM
Protocol: as §1, §2, §3, §4

[4] = biological target: human GABAA α5β2γ1 receptor (Homo sapiens (Human), UniProt P31644+Q8N1C3); experiment: as above
Protocol: as §1, with “α1β2γ1. For better protein expression of the α2 subunit-containing receptors, the 28 amino acid long signal peptide (Met1 to Ala28) of the human GABAA α2 subunit was substituted by the 31 amino acid long signal peptide (Met1 to Ser31) of human GABAA α5 subunit.” for “α1β2γ1.”
as §2, §3
as §4, with “Radioligand binding assays were carried out in a volume of 200 μL (96-well plates) which contained 100 μL of cell membranes, [^3H]RO7239181 at a concentration of 1.5 nM (α5β2γ1) or 20-30 nM (α1β2γ1, α2β2γ1) and the test compound in the range of [0.3-10000]×10^−9 M. Nonspecific binding was defined by 10×10^−6 (α5β2γ1) and 30×10^−6 M RO7239181 and typically represented less than 5% (α5β2γ1) and less than 20% (α1β2γ1, α2β2γ1) of the total binding. Assays” for “Assays”

[5] = Ki h-GABAA α1β2γ1, membranes of HEK293F cells
[6] = HEK293F cells, [3H]Flumazenil 1 nM, Table 1, read-out: Ki h-GABAA α1β3γ2

For Cc1nnc2n1-c1sc3c(c1C(c1c(F)cccc1F)=N[C@H]2C)CCC[C@@H](F)C3 (single isomer, unassigned) [Example 16], the Ki [1] was 1420 nM, the “γ2/γ1 Selectivity Ratio” value ([1]; Table 1) was 15.8 and the LogSel ([1]; Table 1) was 1.20. For the same molecule, the Ki [2, 5] was 421 nM, the Ki ([3]; Table 1) was 89.8 nM and the Ki ([3]; Table 2) was 89.8 nM. The Ki [4] was 13.6 nM.

Cc1nnc2n1-c1sc3c(c1C(c1c(F)cccc1F)=NC2)CCOCC3 [Example 5, 9-(2,6-difluorophenyl)-3-methyl-14-oxa-18-thia-2,4,5,8-tetrazatetracyclo[8.8.0.02,6.011,17]octadeca-1(10),3,5,8,11(17)-pentaene] was tested, and the Ki [1] was 1260 nM, the “γ2/γ1 Selectivity Ratio” value ([1]; Table 1) was 19.8 and the LogSel ([1]; Table 1) was 1.30. For the same molecule, the Ki [2, 5] was 246 nM, the Ki ([3]; Table 1) was 63.5 nM and the Ki ([3]; Table 2) was 63.5 nM. The Ki [4] was 10.5 nM.

With [2H]C1([2H])OCc2c(sc3c2C(c2c(F)cccc2F)=N[C@@H](C)c2nc(C(=O)NCC)nn2-3)OC1([2H])[2H] [Example 38, (7S)-14,14,15,15-tetradeuterio-9-(2,6-difluorophenyl)-N-ethyl-7-methyl-13,16-dioxa-18-thia-2,3,5,8-tetrazatetracyclo[8.8.0.02,6.011,17]octadeca-1(10),3,5,8,11(17)-pentaene-4-carboxamide] the Ki [1, 6] was 4030 nM, the “γ2/γ1 Selectivity Ratio” value ([1]; Table 1) was 224.3 and the LogSel ([1]; Table 1) was 2.35. It also gave a Ki ([2]; membranes of HEK293F cells, read-out: Ki h-GABAA α1β2γ1) of 122 nM, a Ki ([3]; Table 1) of 17.9 nM and a Ki ([3]; Table 2) of 17.9 nM. The Ki [4] was 3.59 nM.

With C[C@@H]1N=C(c2c(F)cccc2F)c2c(sc3c2COCCO3)-n2cc(C(=O)NCC(C)(C)O)nc21 [Example 59, (7S)-9-(2,6-difluorophenyl)-N-(2-hydroxy-2-methyl-propyl)-7-methyl-13,16-dioxa-18-thia-2,5,8-triazatetracyclo[8.8.0.02,6.011,17]octadeca-1(10),3,5,8,11(17)-pentaene-4-carboxamide] the Ki [1, 6] was 1270 nM, the “γ2/γ1 Selectivity Ratio” value ([1]; Table 1) was 142.9 and the LogSel ([1]; Table 1) was 2.16. The Ki [2, 5] was 21.7 nM, the Ki ([3]; Table 1) was 8.9 nM and the Ki ([3]; Table 2) was 8.9 nM. For the same molecule, the Ki [4] was 2.27 nM.

C[C@@H]1N=C(c2c(F)cccc2F)c2c(sc3c2COCCO3)-n2nc(C(=O)NCC3(O)CC3)nc21 [Example 60, (7S)-9-(2,6-difluorophenyl)-N-[(1-hydroxycyclopropyl)methyl]-7-methyl-13,16-dioxa-18-thia-2,3,5,8-tetrazatetracyclo[8.8.0.02,6.011,17]octadeca-1(10),3,5,8,11(17)-pentaene-4-carboxamide] was tested, and the Ki [1, 6] was 3690 nM, the “γ2/γ1 Selectivity Ratio” value ([1]; Table 1) was 157.4 and the LogSel ([1]; Table 1) was 2.20. The Ki ([3]; Table 1) was 23.4 nM, the Ki ([3]; Table 2) was 23.4 nM and the Ki [4] was 2.86 nM.

For C[C@@H]1N=C(c2c(F)cccc2F)c2c(sc3c2COCCC3)-n2nc(C(=O)NC[C@](C)(O)C(F)(F)F)nc21 [Example 69, (7S)-9-(2,6-difluorophenyl)-7-methyl-N-[(2S)-3,3,3-trifluoro-2-hydroxy-2-methyl-propyl]-13-oxa-18-thia-2,3,5,8-tetrazatetracyclo[8.8.0.02,6.011,17]octadeca-1(10),3,5,8,11(17)-pentaene-4-carboxamide], the Ki [1, 6] was 3700 nM, the “γ2/γ1 Selectivity Ratio” value ([1]; Table 1) was 59.7 and the LogSel ([1]; Table 1) was 1.78. The Ki ([3]; Table 1) was 62 nM, the Ki ([3]; Table 2) was 62 nM and the Ki [4] was 7.8 nM.

With C[C@@H]1N=C(c2c(F)cccc2F)c2c(sc3c2COCCC3)-n2nc(C(=O)NCC(C)(C)O)nc21 [Example 71, (7S)-9-(2,6-difluorophenyl)-N-(2-hydroxy-2-methyl-propyl)-7-methyl-13-oxa-18-thia-2,3,5,8-tetrazatetracyclo[8.8.0.02,6.011,17]octadeca-1(10),3,5,8,11(17)-pentaene-4-carboxamide] the Ki [1, 6] was 3920 nM, the “γ2/γ1 Selectivity Ratio” value ([1]; Table 1) was 49.0 and the LogSel ([1]; Table 1) was 1.69. For the same molecule, the Ki ([3]; Table 1) was 80 nM, the Ki ([3]; Table 2) was 80 nM and the Ki [4] was 7.3 nM.
